Data on four compounds can be found in ChEMBL document CHEMBL5365490, “Enhanced tumor specific drug release by hypoxia sensitive dual-prodrugs based on 2-nitroimidazole” (Bioorg Med Chem Lett, 2023).

Data set [1] is described as follows: Chemical stability of compound in PBS at pH 7.4 assessed as remaining parent compound incubated for 6 hrs by LC/MS analysis. The format is physicochemical. The note with it: buffer, pH 7.4, 6 h.
In data set [2] the test system is MIA PaCa-2. Put plainly: Antiproliferative activity against human MIA-PaCa-2 cells assessed as reduction in cell viability > 1 uM measured for 72 hrs under hypoxia condition by MTT assay. The format is functional, cell-based. (Formazan colour is commonly taken as a measure of viable cells.)
Data set [3] in a line: Chemical stability of compound in PBS at pH 7.4 assessed as remaining parent compound incubated for 24 hrs by LC/MS analysis. Type of data set: physicochemical. The conditions noted are these: buffer, pH 7.4, 24 h.
Data set [4] in a line: Stability of compound in human MIA Paca-2 cells homogenates assessed as remaining parent compound incubated for 6 hrs by LC/MS analysis. The format is ADME, cell-based. The note with it: mia paca-2, 6 h.
Data set [5] can be described thus: Stability of compound in human MIA Paca-2 cells homogenates assessed as remaining parent compound incubated for 24 hrs by LC/MS analysis. The format is ADME, cell-based. The note with it: mia paca-2, 24 h.
In data set [6] the test system is MIA PaCa-2. Put plainly: Antiproliferative activity against human MIA-PaCa-2 cell assessed as inhibition of cell growth > 0.1 uM measured for 72 hrs under normoxia condition by MTT assay. The format is functional, cell-based.
Data set [7] has as its system MIA PaCa-2. Put plainly: Antiproliferative activity against human MIA-PaCa-2 cells assessed as reduction in cell viability > 0.1 uM measured for 72 hrs under hypoxia condition by MTT assay. Type of data set: functional, cell-based.
Data set [8] in a line: Chemical stability of compound in PBS at pH 7.4 assessed as remaining parent compound after 1 hrs of incubation by LC/MS analysis. The format is physicochemical. The conditions noted are these: buffer, pH 7.4, 1 h.
Data set [9] is described as follows: Drug metabolism in human MIA PaCa-2 cells homogenates assessed as (S)-2-(2,3-dichloro-4H-thieno[3,2-b]pyrrole-5-carboxamido)-3-(2-nitro-1H-imidazol-1-yl)propanoic acid formation incubated for 24 hrs by LC/MS analysis. Type of data set: ADME, cell-based. The note with it: mia paca-2, 24 h.
A short description of data set [10]: Stability of compound in human MIA Paca-2 cells homogenates assessed as drug degradation incubated for 6 hrs by LC/MS analysis. The format is ADME, cell-based. The conditions noted are these: MIA PaCa-2 cell homogenates, read-out: Drug degradation.
A short description of data set [11]: Drug metabolism in human MIA PaCa-2 cells homogenates assessed as gemcitabine formation incubated for 24 hrs by LC/MS analysis. The format is ADME, cell-based. The conditions noted are these: mia paca-2, 24 h.
Data set [12] is described as follows: Half life in PBS buffer at pH 7.4 measured upto 72 hrs by LC/MS analysis. The format is physicochemical.

Active and inactive are the calls of the source.

With `O=C(Nc1ccn([C@@H]2O[C@H](CO)[C@@H](O)C2(F)F)c(=O)n1)OCc1ccc(NC(=O)[C@@H](Cn2ccnc2[N+](=O)[O-])NC(=O)c2cc3sc(Cl)c(Cl)c3[nH]2)cc1`, the Stability entry in data set [1], in data set [3], in data set [4] and in data set [5] was “Stable” each time. The result with MIA PaCa-2 [2] was Active.
Regarding `Nc1ccn([C@@H]2O[C@H](CO)[C@@H](O)C2(F)F)c(=O)n1`, the result in the data set with MIA PaCa-2 [6] and in the data set on MIA PaCa-2 [7] was Active.
As to `Nc1ccn([C@@H]2O[C@H](COC(=O)[C@H](Cn3ccnc3[N+](=O)[O-])NC(=O)c3cc4sc(Cl)c(Cl)c4[nH]3)[C@@H](O)C2(F)F)c(=O)n1`, the Stability entry in data set [8] is “Unstable”. The Drug metabolism result in data set [9] and in data set [11] was “Metabolite_Detected” in each case. Moreover, the metabolised at 6 h in [10] was above 50%.
As usually defined, the half-life is the time needed for the level to fall by half in the phase considered. `Nc1nccn1C[C@@H](NC(=O)c1cc2sc(Cl)c(Cl)c2[nH]1)C(=O)Nc1ccc(COC(=O)Nc2ccn([C@@H]3O[C@H](CO)[C@@H](O)C3(F)F)c(=O)n2)cc1` had a half-life in [12] of 40 h.
